Results taken from patent US20170189496A1, “USE OF PHOSPHORYLATION PATHWAY-RELATED FACTOR IN REGULATING FUNCTION OF REGULATORY T CELL” (Institut Pasteur of Shanghai, Chinese Academy of Sciences, priority 2012, published 2017).

Tests used:
[1] = tested on: SZ4.03 lymphocyte cell line that highly expresses FOXP3; assay: Inflammatory cytokine induction of PIM1 expression in SZ4.03 cells (immunoblot); type: cell-based; conditions: IL-6 20 ng/ml or IL-4 30 ng/ml; for PIM1 expression: 0 h, 1 h, 2 h, 4 h; for FOXP3 expression levels: 0-4 h
Method: SZ4.03 cells were treated with IL-6 (20 ng/ml) or IL-4 (30 ng/ml), respectively. After 0 h, 1 h, 2 h, and 4 h, cells were collected and lysed by boiling directly in SDS-Loading Buffer. Samples were then analyzed by immunoblot.
SZ4.03 cells (lymphocyte cell line that highly expresses FOXP3, kept in the present laboratory; also can be routinely obtained by one skilled in the art according to methods described in Reference 7) were cultured in 1640 culture medium containing 10% FBS, 100 units/ml penicillin-streptomycin, 100 units ml non-essential amino acids, and 100 units/ml sodium pyruvate, at 37° C. under 5% CO2.
After protein samples were subjected to SDS-PAGE, transferred to nitrocellulose membrane, sealed in TBST with 5% skim milk for 1 h, primary antibody was added and incubated for 1 h, then HRP-conjugated secondary antibody was added and incubated for 1 h, and results shown by exposure with ECL substrates.
SZ4.03 cells were treated with IL-6 (20 ng/ml) or IL-4 (30 ng/ml), respectively, for 0 h, 1 h, 2 h, and 4 h. Cells were collected and lysed by boiling directly in SDS sample buffer, and then samples were analyzed by immunoblot (primary antibodies are PIM1 antibody and FOXP3 antibody) (results shown in FIG. 2).

[2] = tested on: in vitro expanded natural regulatory T cells (nTreg); assay: PIM1 protein expression in in vitro expanded nTreg under inflammatory cytokine stimulation; type: cell-based

| Molecule | PIM1 expression [1] | FOXP3 expression levels [1] | PIM1 protein expression levels [2] |
| --- | --- | --- | --- |
| IL-6: inflammatory cytokine, purchased from Apotech | gradually increases as treatment time increases | no significant difference | rapidly up-regulate |
| IL-4: inflammatory cytokine, purchased from Apotech (protein, UniProt P05112 25-153, looked up) Interleukin-4: HKCDITLQEIIKTLNSLTEQKTLCTELTVTDIFAASKNTTEKETFCRAATVLRQFYSHHEKDTRCLGATAQQFHRHKQLIRFLKRLDRNLWGLAGLNSCPVKEANQSTLENFLERLKTIMREKYSKCSS | gradually increases as treatment time increases | no significant difference | rapidly up-regulate |
